Measured values as given in US9868746B2, “Substituted 5-aminothieno[2,3-C]pyridazine-6-carboxamide analogs as positive allosteric modulators of the muscarinic acetylcholine receptor M4” (Vanderbilt University, priority 2012, dated 2018).
Where two headings read alike, the source gives them in different places.

Molecular target: T1, mAChR M4 (Homo sapiens, UniProt P08173)
T1 construct: expressed in transfected cells; host or cells: CHO-K1 cells stably transfected with M4 cDNA and chimeric G-protein Gqi5
T1 sequence (P08173 1-479): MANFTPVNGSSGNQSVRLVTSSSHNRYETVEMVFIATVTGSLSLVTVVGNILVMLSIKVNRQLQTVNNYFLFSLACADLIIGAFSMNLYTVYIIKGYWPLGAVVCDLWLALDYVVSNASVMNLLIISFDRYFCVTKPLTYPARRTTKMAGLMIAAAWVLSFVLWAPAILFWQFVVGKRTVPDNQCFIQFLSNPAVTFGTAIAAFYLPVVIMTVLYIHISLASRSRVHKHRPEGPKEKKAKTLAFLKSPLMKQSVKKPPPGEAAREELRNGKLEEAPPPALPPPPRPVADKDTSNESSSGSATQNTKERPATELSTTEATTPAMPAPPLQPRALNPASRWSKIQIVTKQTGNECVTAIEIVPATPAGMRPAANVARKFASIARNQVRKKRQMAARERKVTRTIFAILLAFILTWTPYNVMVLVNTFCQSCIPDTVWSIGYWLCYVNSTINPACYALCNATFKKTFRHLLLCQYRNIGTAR
Assay: mAChR M4 cell-based functional assay (calcium mobilization, potentiation of EC20 acetylcholine response)

[1] = mAChR M4 cell-based functional assay, >10,000 estimated for low potency compounds without plateau, read-out: EC50

Row | Emax at 30 µM (% ACh maximum at 30 μM) [%] | EC50 [1] [nM] | Compound | Emax (%)* (% ACh maximum at 30 μM) [%] | EC50 (EC50 (nM)) [nM]
1 | 88 | 70 | Cc1nnc2sc(C(=O)NC3CN(C(=O)Cc4cccs4)C3)c(N)c2c1C [Example B154] | – | –
2 | 64 | 430 | COc1ccccc1C(=O)N1CC(NC(=O)c2sc3nnc(C)c(C)c3c2N)C1 [Example B397] | – | –
3 | 33 | > 10000 | Cc1nnc2sc(C(=O)NCCN(C)C(=O)C3CC3)c(N)c2c1C [Example B343] | – | –
4 | 71 | 150 | COc1ccc(CNC(=O)c2sc3nnc(C)c(C)c3c2N)cn1 [Example B288] | – | –
5 | 54 | 600 | Cc1nnc2sc(C(=O)Nc3ccncc3)c(N)c2c1C [Example B38] | – | –
6 | 74 | > 10000 | Cc1nnc2sc(C(=O)NCc3ccc(OC(F)F)cn3)c(N)c2c1C [Example B480] | – | –
7 | 53 | 560 | Cc1nnc2sc(C(=O)N3CC(NC(=O)OCc4ccccc4)C3)c(N)c2c1C [Example B190] | – | –
8 | 73 | 35 | Cc1nnc2sc(C(=O)NCc3ccc(S(=O)(=O)C(F)F)c(Cl)c3)c(N)c2c1C [Example B489] | – | –
9 | 75 | 160 | Cc1nnc2sc(C(=O)N3CC(c4ccccc4)C3)c(N)c2c1C [Example B116] | – | –
10 | 67 | 360 | Cc1nnc2sc(C(=O)NCc3ccc4c(c3)CC(=O)N4)c(N)c2c1C [Example B276] | – | –
11 | 35 | > 10000 | Cc1nnc2sc(C(=O)NCC3CN(C(=O)OC(C)(C)C)C3)c(N)c2c1C [Example B197] | – | –
12 | 69 | 230 | COc1cc(CNC(=O)c2sc3nnc(C)c(C)c3c2N)ccn1 [Example B289] | – | –
13 | 58 | 1000 | Cc1nnc2sc(C(=O)NCc3ccccn3)c(N)c2c1C [Example B13] | – | –
14 | 65 | 160 | Cc1nnc2sc(C(=O)NC3CN(S(=O)(=O)c4ccco4)C3)c(N)c2c1C [Example B99] | – | –
15 | 66 | 340 | Cc1nnc2sc(C(=O)NCc3ccc(C#N)c(F)c3)c(N)c2c1C [Example B451] | – | –
16 | 66 | 510 | Cc1nnc2sc(C(=O)NCc3ccc(S(=O)(=O)C(F)F)cc3Cl)c(N)c2c1C [Example B507] | – | –
17 | 58 | 320 | Cc1nnc2sc(C(=O)NCc3cnn(C)c3)c(N)c2c1C [Example B89] | – | –

Row | Emax at 30 µM (% ACh maximum at 30 μM) [%] | EC50 [1] [nM] | Compound | Emax (%)* (% ACh maximum at 30 μM) [%] | EC50 (EC50 (nM)) [nM]
18 | 58 | – | COc1ccc(CNC(=O)c2sc3nnc(C)c(C)c3c2N)cc1F [Example B90] | – | –
19 | 45 | 440 | COc1ccc(C2(OC)CN(C(=O)c3sc4nnc(C)c(C)c4c3N)C2)cc1 [Example B290] | – | –
20 | 97 | 100 | Cc1nnc2sc(C(=O)NCc3cccc(F)c3F)c(N)c2c1C [Example B15] | – | –
21 | 58 | 16 | Cc1nnc2sc(C(=O)NC3CN(C(=O)Oc4ccc(Cl)cc4)C3)c(N)c2c1C [Example B355] | – | –
22 | 67 | 78 | Cc1nnc2sc(C(=O)NCc3ccc(-n4cncn4)cc3)c(N)c2c1C [Example B511] | – | –
23 | 97 | 140 | Cc1nnc2sc(C(=O)NCc3cccc(F)c3)c(N)c2c1C [Example B7] | – | –
24 | 76 | 14 | COc1ccc(C2CC2NC(=O)c2sc3nnc(C)c(C)c3c2N)cc1 (centres unmarked) [Example B30] | – | –
25 | 69 | 170 | Cc1nnc2sc(C(=O)NCc3ccc(CS(C)(=O)=O)cc3)c(N)c2c1C [Example B74] | – | –
26 | 62 | 18 | Cc1nnc2sc(C(=O)N[C@H]3C[C@@H]3c3ccc(S(C)(=O)=O)cc3)c(N)c2c1C (single isomer, unassigned) [Example B110] | – | –
27 | 76 | 150 | Cc1nnc2sc(C(=O)NC3CN(C(=O)c4ccc(F)c(F)c4)C3)c(N)c2c1C [Example B131] | – | –
28 | 61 | 220 | Cc1nnc2sc(C(=O)NCc3ccc4c(c3)CN(C(C)C)C4=O)c(N)c2c1C [Example B407] | – | –
29 | 61 | 10 | Cc1nnc2sc(C(=O)NC3CN(C(=O)Oc4cc(F)cc(F)c4)C3)c(N)c2c1C [Example B370] | – | –
30 | 77 | 68 | Cc1nnc2sc(C(=O)NCc3ccc(S(=O)(=O)CCO)cc3)c(N)c2c1C [Example B387] | – | –
31 | 82 | > 10000 | Cc1nnc2sc(C(=O)NCc3cnccn3)c(N)c2c1C [Example B10] | – | –
32 | 57 | 840 | COc1ccc2c(c1)CCN(C(=O)c1sc3nnc(C)c(C)c3c1N)C2 [Example B315] | – | –
33 | 66 | 10 | Cc1nnc2sc(C(=O)NCc3ccc(S(=O)(=O)C(C)(F)F)cc3)c(N)c2c1C [Example B118] | – | –

Continued, molecule first:

Row | Compound | Emax at 30 µM (% ACh maximum at 30 μM) [%] | EC50 [1] [nM] | Emax (%)* (% ACh maximum at 30 μM) [%] | EC50 (EC50 (nM)) [nM]
34 | Cc1nnc2sc(C(=O)N3CC(NC(=O)C4CC4c4ccccc4)C3)c(N)c2c1C (centres unmarked) [Example B182] | 59 | 2300 | – | –
35 | CCOC(=O)N1CC2CN(C(=O)c3sc4nnc(C)c(C)c4c3N)CC2C1 (centres unmarked) [Example B285] | 73 | 2500 | – | –
36 | Cc1nnc2sc(C(=O)N3CC(F)(c4cccc(-c5ccncc5)c4)C3)c(N)c2c1C [Example B323] | 44 | 87 | – | –
37 | Cc1nnc2sc(C(=O)NC3CN(C(=O)Oc4cccc(N=[N+]=[N-])c4)C3)c(N)c2c1C [Example B424] | 68 | 7.9 | – | –
38 | Cc1nnc2sc(C(=O)NC3CCN(C(=O)Cc4cccs4)C3)c(N)c2c1C (centres unmarked) [Example B227] | 76 | 920 | – | –
39 | Cc1nnc2sc(C(=O)N3CC(F)(c4cccc(-c5cccnc5)c4)C3)c(N)c2c1C [Example B321] | 48 | 290 | – | –
40 | Cc1nnc2sc(C(=O)NC3CCN(c4ccccc4C(F)(F)F)C3)c(N)c2c1C (centres unmarked) [Example B284] | 71 | 150 | – | –
41 | COc1ccc(CNC(=O)c2sc3nnccc3c2N)cc1 [Example B2] | 61 | > 10000 | – | –
42 | Cc1nnc2sc(C(=O)NCCNC(=O)Oc3ccccc3)c(N)c2c1C [Example B374] | – | > 10000 | 33 | –
43 | Cc1c(CN2CCOCC2)nnc2sc(C(=O)NCc3ccc(S(=O)(=O)C(F)(F)F)cc3)c(N)c12 [Example B324] | 72 | 460 | – | –
44 | Cc1nnc2sc(C(=O)NC3CCN(C(=O)c4ccc(F)cc4)C3)c(N)c2c1C (centres unmarked) [Example B219] | 77 | 350 | – | –
45 | Cc1nnc2sc(C(=O)NC3CN(S(=O)(=O)c4ccc(C(F)(F)F)cc4)C3)c(N)c2c1C [Example B147] | 95 | 87 | – | –
46 | Cc1nnc2sc(C(=O)N3CCC(NS(=O)(=O)c4cncn4C)C3)c(N)c2c1C (centres unmarked) [Example B202] | 69 | 3800 | – | –
47 | Cc1nnc2sc(C(=O)NCc3cccc(S(C)(=O)=O)c3)c(N)c2c1C [Example B44] | 75 | – | – | 420
48 | Cc1nnc2sc(C(=O)N3CCC(NS(=O)(=O)c4ccccc4)C3)c(N)c2c1C (centres unmarked) [Example B207] | 64 | 1300 | – | –
49 | Cc1nnc2sc(C(=O)N3CC(C4CCCCC4)C3)c(N)c2c1C [Example B262] | 66 | 50 | – | –
50 | Cc1nc(C(F)(F)F)c(S(=O)(=O)N2CC(NC(=O)c3sc4nnc(C)c(C)c4c3N)C2)s1 [Example B101] | 66 | 84 | – | –
51 | Cc1nnc2sc(C(=O)NC3CN(S(=O)(=O)CC(F)(F)F)C3)c(N)c2c1C [Example B119] | 68 | 82 | – | –
52 | Nc1c(C(=O)NCc2ccc3c(c2)OCO3)sc2nnc3c(c12)CCCC3 [Example B50] | 49 | 61 | – | –
53 | Cc1nnc2sc(C(=O)N3CC4CN(C(=O)C5CCC5)CC4C3)c(N)c2c1C (centres unmarked) [Example B385] | 55 | 2600 | – | –
54 | CS(=O)(=O)c1ccc(CNC(=O)c2sc3nnccc3c2N)cc1 [Example B20] | 41 | > 10000 | – | –
55 | Cc1ccc(S(=O)(=O)N2CCCN(C(=O)c3sc4nnc(C)c(C)c4c3N)CC2)cc1 [Example B114] | 48 | 1600 | – | –
56 | Cc1nnc2sc(C(=O)NC3CCN(C(=O)c4cccs4)C3)c(N)c2c1C (centres unmarked) [Example B200] | 74 | 91 | – | –
57 | COc1ccc(CNC(=O)c2sc3nnc(-c4ccccc4)c(-c4ccccc4)c3c2N)cc1 [Example B40] | 47 | 2700 | – | –
58 | Cc1nnc2sc(C(=O)NCc3ccc(S(=O)(=O)C(C)C)cc3)c(N)c2c1C [Example B48] | 77 | – | – | 48
59 | Cc1nnc2sc(C(=O)N3CC4CN(C(=O)Oc5ccccc5)CC4C3)c(N)c2c1C (centres unmarked) [Example B336] | 49 | 980 | – | –
60 | Cc1nnc2sc(C(=O)N3CC(NC(=O)C4CCCCC4)C3)c(N)c2c1C [Example B185] | 54 | 1800 | – | –
61 | Cc1nnc2sc(C(=O)N3CC4(CN(C(=O)c5ccccc5)C4)C3)c(N)c2c1C [Example B404] | 50 | > 10000 | – | –
62 | CS(=O)(=O)c1ccc(CNC(=O)c2sc3nnc(Cl)cc3c2N)cc1 [Example B76] | 55 | 490 | – | –
63 | Cc1nnc2sc(C(=O)N3CCC4(CN(C(=O)OC(C)(C)C)C4)C3)c(N)c2c1C [Example B194] | 30 | 4700 | – | –
